Measured values from patent US20230382924A1, “MODULATORS OF CYSTIC FIBROSIS TRANSMEMBRANE CONDUCTANCE REGULATOR” (VERTEX PHARMACEUTICALS INCORPORATED, priority 2020, published 2023).
Where two headings read alike, the source gives them in different places.

Legend:
CFTR [1] = biological target: T1, CFTR (Homo sapiens, UniProt P13569); experiment: Membrane Potential Dye, Enteroid Assay A; type: cell-based; settings: for EC50: read-out: Ent. A EC50
Summary of the method: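 Enteroid cells were loaded with methyl oxonol membrane potential dye (plus CaCCinh-A01 and Chicago Sky Blue) for 25 min at room temperature. Chloride transport was started by switching to chloride-free gluconate stimulation solution, with fluorescence read for 15 min. Activity was expressed as % of a triple-combination CFTR modulator control (3 μM, 3 μM, 300 nM acute).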

CFTR [2] = biological target: T1, CFTR; experiment: Membrane Potential Dye, Enteroid Assay B; type: cell-based; settings: for EC50: read-out: Ent. B EC50
Summary of the method: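 Enteroid cells loaded 25 min at room temperature with 20 μM methyl oxonol plus 30 μM CaCCinh-A01 and 30 μM Chicago Sky Blue, then switched to chloride-free gluconate buffer. Chloride transport was started by chloride-free stimulation solution, with fluorescence read for 15 min.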

F508del = biological target: T2, F508del (Homo sapiens, UniProt P13569, DEL508-508); experiment: 3T3 assay: membrane potential optical assay for F508del correction in NIH 3T3 cells; type: cell-based; settings: Table 8
T2 construct: expressed in transfected cells
Summary of the method: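 NIH 3T3 mouse fibroblasts stably expressing F508del were incubated with corrector compounds at a range of concentrations for 16–24 h at 37° C, then loaded with a redistribution voltage-sensing dye. A single addition of forskolin under a chloride gradient (gluconate-substituted bath, pH 7.4) gave the membrane-potential response, read by FLIPR.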

[3] = amide bond, 13-membered ring, DMF, 25.0 °C
CFTR [4] = biological target: T3, CFTR (Homo sapiens, UniProt P13569, DEL508-508); experiment: HBE assay: Ussing chamber assay of CFTR-mediated short-circuit currents in F508del/MF-HBE cells; type: cell-based; settings: 20% human serum; for EC50: range of concentrations in combination with 1 μM Ivacaftor, 18-24 hours at 37° C.; for Emax: with 1 μM Ivacaftor, 18-24 hours, compared to known Vertex corrector with 18 μM Tezacaftor and 1 μM Ivacaftor, read-out: HBE Max Activity (%)
T3 construct: endogenous in cells; host or cells: primary human bronchial epithelial cells from CF subjects (F508del/MF)
Description: 1. Ussing Chamber Assay of CFTR-Mediated Short-Circuit Currents
Ussing chamber experiments were performed using human bronchial epithelial (HBE) cells derived from CF subjects heterozygous for F508del and a minimal function CFTR mutation (F508del/MF-HBE) and cultured as previously described (Neuberger T, Burton B, Clark H, Van Goor F Methods Mol Biol 2011:741:39-54). After four days the apical media was removed, and the cells were grown at an air liquid interface for >14 days prior to use.
To isolate the CFTR-mediated short-circuit (Isc) current, F508del/MF-HBE grown on Costar® Snapwell™ cell culture inserts were mounted in an Ussing chamber and the transepithelial Isc was measured under voltage-clamp recording conditions (Vhold=0 mV) at 37° C. The basolateral solution contained (in mM) 145 NaCl, 0.83 K2HPO4, 3.3 KH2P04, 1.2 MgCl2, 1.2 CaCl2), 10 Glucose, 10 HEPES (pH adjusted to 7.4 with NaOH) and the apical solution contained (in mM) 145 NaGluconate, 1.2 MgCl2, 1.2 CaCl2), 10 glucose, 10 HEPES (pH adjusted to 7.4 with NaOH) and 30 μM amiloride to block the epithelial sodium channel. Forskolin (20 μM) was added to the apical surface to activate CFTR, followed by apical addition of a CFTR inhibitor cocktail consisting of BPO, GlyH-101, and CFTR inhibitor 172 (each at 20 μM final assay concentration) to specifically isolate CFTR currents. The CFTR-mediated Isc (ρA/cm^2) for each condition was determined from the peak forskolin response to the steady-state current following inhibition.
2. Identification of Corrector Compounds
The activity of the CFTR corrector compounds on the CFTR-mediated Isc was determined in Ussing chamber studies as described above. The F508del/MF-HBE cell cultures were either incubated with the corrector compounds at a range of concentrations in combination with 1 μM Ivacaftor or were incubated with the corrector compounds at a single fixed concentration of 10 μM in combination with 1 μM Ivacaftor for 18-24 hours at 37° C. and in the presence of 20% human serum. The concentration of corrector compounds with 1 μM Ivacaftor during the 18-24 hours incubations was kept constant throughout the Ussing chamber measurement of the CFTR-mediated Isc to ensure compounds were present throughout the entire experiment.

T3 sequence (P13569 with tags, fused parts or gaps DEL508-508): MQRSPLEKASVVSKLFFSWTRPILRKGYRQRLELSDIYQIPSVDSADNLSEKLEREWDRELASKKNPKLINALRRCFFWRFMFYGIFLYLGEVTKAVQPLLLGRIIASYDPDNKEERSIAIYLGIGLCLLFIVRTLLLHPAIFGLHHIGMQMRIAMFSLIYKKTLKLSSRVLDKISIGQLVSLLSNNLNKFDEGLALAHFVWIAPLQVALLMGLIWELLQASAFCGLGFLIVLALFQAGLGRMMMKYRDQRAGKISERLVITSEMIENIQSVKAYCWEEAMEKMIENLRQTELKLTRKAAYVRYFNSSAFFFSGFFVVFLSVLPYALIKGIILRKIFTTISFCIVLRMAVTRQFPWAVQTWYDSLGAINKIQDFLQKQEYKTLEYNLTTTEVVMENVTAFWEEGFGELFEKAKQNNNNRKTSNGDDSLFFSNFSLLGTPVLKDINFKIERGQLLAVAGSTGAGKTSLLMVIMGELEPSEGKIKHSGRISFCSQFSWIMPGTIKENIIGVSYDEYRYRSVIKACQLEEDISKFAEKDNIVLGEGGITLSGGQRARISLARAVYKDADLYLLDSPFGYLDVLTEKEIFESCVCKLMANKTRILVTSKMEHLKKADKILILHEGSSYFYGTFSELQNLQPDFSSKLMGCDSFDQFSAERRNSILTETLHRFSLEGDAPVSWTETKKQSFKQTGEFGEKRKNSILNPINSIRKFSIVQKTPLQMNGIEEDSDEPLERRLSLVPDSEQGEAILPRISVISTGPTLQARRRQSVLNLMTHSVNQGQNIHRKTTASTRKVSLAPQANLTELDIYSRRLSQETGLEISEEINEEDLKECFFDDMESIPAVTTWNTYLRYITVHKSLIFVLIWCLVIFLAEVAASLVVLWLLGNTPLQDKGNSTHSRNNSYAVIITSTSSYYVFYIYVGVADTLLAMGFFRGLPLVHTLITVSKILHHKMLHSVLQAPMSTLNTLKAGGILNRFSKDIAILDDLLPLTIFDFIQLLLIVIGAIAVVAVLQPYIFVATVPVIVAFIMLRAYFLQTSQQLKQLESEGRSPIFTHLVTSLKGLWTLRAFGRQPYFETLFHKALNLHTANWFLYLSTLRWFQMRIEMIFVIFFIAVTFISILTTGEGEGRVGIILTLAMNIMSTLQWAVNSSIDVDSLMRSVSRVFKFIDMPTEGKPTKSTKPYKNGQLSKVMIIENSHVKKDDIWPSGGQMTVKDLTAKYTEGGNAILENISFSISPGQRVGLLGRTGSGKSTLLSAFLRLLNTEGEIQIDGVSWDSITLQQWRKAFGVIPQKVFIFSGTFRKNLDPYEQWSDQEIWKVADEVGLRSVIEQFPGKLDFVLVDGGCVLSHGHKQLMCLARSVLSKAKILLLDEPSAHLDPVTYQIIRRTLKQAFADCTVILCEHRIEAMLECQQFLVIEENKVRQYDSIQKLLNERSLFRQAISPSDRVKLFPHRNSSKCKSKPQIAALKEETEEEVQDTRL
T1 sequence (P13569 with tags, fused parts or gaps DEL508-508): as above
T2 sequence (P13569 with tags, fused parts or gaps DEL508-508): as above

Cc1cccc(C)c1-c1cc2nc(n1)NS(=O)(=O)c1cccc(c1)C(=O)N[C@@H]1CN(C(=O)OC(C)(C)C)C[C@H]1O2 [Compound 57, tert-Butyl (3R,7R)-19-(2,6-dimethylphenyl)-9,15,15-trioxo-2-oxa-15λ^6-thia-5,8,16,18,21-pentaazatetracyclo[15.3.1.110,14.03,7]docosa-1(20),10(22),11,13,17(21),18-hexaene-5-carboxylate]
ring closure, isolated yield (from Cc1cccc(C)c1-c1cc(O[C@@H]2CN(C(=O)OC(C)(C)C)C[C@H]2N)nc(NS(=O)(=O)c2cccc(C(=O)O)c2)n1, amide bond, 13-membered ring, HATU/DIEA, DMF, 17.1 mM, 72.0 h): 18% | Ent. A Max Activity (CFTR [1]; Table 9): +++ (+++ is >60%) | EC50 (CFTR [1]; Table 9): 1000 to 3000 nM | Ent. B Max Activity (CFTR [2]; Table 9): +++ (+++ is >60%) | EC50 (CFTR [2]; Table 9): 1000 to 3000 nM

C=CCCCCCC[C@@H]1COc2cc(-c3ccccc3C=C)nc(n2)NS(=O)(=O)c2cccc(c2)C(=O)N1 [Compound 35, (11R)-11-Oct-7-enyl-2,2-dioxo-6-(2-vinylphenyl)-9-oxa-2λ^6-thia-3,5,12,19-tetrazatricyclo[12.3.1.14,8]nonadeca-1(18),4,6,8(19),14,16-hexaen-13-one]
ring closure, isolated yield (from C=CCCCCCC[C@@H](N)COc1cc(-c2ccccc2C=C)nc(NS(=O)(=O)c2cccc(C(=O)O)c2)n1, amide bond, 13-membered ring, HATU/NaOtBu, DMF/THF, 19.4 mM, 0.0 °C, 0.67 h, 2 steps): 35% | Ent. B Max Activity (CFTR [2]; Table 9): ++ (++ is 30-60%) | EC50 (CFTR [2]; Table 9): < 1000 nM

Cc1cccc(C)c1-c1cc2nc(n1)NS(=O)(=O)c1cccc(c1)C(=O)N[C@H](C)[C@@H](c1ccc(C(C)(C)C)cc1)O2 [Compound 38, (10R,11R)-10-(4-tert-Butylphenyl)-6-(2,6-dimethylphenyl)-11-methyl-9-oxa-2λ^6-thia-3,5,12,19-tetraazatricyclo[12.3.1.14,8]nonadeca-1(18),4,6,8(19),14,16-hexaene-2,2,13-trione]
ring closure, isolated yield (from Cc1cccc(C)c1-c1cc(O[C@H](c2ccc(C(C)(C)C)cc2)[C@@H](C)N)nc(NS(=O)(=O)c2cccc(C(=O)O)c2)n1, amide bond, 13-membered ring, HATU/NaOtBu, DMF/MeTHF, 52.6 mM, 25.0 °C, 16.0 h, 2 steps): 39% | Emax (F508del; NIH3T3, read-out: 3T3 Max Activity): > 60% | EC50 (F508del): < 1000 nM | Ent. A Max Activity (CFTR [1]; Table 8): +++ (+++ is >60%) | EC50 (CFTR [1]; Table 8): < 1000 nM | Ent. B Max Activity (CFTR [2]; Table 8): +++ (+++ is >60%) | EC50 (CFTR [2]; Table 8): < 1000 nM

Cc1cccc(C)c1-c1cc2nc(n1)NS(=O)(=O)c1cccc(c1)C(=O)N[C@@H]1CN(C(=O)OC(C)(C)C)CC[C@H]1O2 [Compound 59, tert-Butyl (3R,8R)-20-(2,6-dimethylphenyl)-10,16,16-trioxo-2-oxa-16λ^6-thia-6,9,17,19,22-pentaazatetracyclo[16.3.1.111,15.03,8]tricosa-1(21),11(23),12,14,18(22),19-hexaene-6-carboxylate]
ring closure, isolated yield (from Cc1cccc(C)c1-c1cc(O[C@@H]2CCN(C(=O)OC(C)(C)C)C[C@H]2N)nc(NS(=O)(=O)c2cccc(C(=O)O)c2)n1, amide bond, 13-membered ring, COMU/DIEA, DMF, 19.4 mM, 19.0 h): 34% | Ent. A Max Activity (CFTR [1]; Table 9): +++ (+++ is >60%) | EC50 (CFTR [1]; Table 9): < 1000 nM

COCN1c2nc3cc(n2)-c2ccccc2/C=C/CCCCCC[C@H](CO3)NC(=O)c2cccc(c2)S1(=O)=O
ring closure, isolated yield (from C=CCCCCCC[C@@H]1COc2cc(-c3ccccc3C=C)nc(n2)N(COC)S(=O)(=O)c2cccc(c2)C(=O)N1, rcm bond, 16-membered ring, Grubbs II, toluene, 16.4 mM, 100.0 °C, 1.5 h): 80%

O=S1(=O)Nc2nc(Cl)cc(n2)-c2ccccc2CCCNc2cccc1c2
ring closure, isolated yield (from CC1(C)OB(c2ccccc2CCCNc2cccc(S(=O)(=O)Nc3nc(Cl)cc(Cl)n3)c2)OC1(C)C, cc_pd bond, 14-membered ring, Pd(PPh3)4/K2CO3, 1,4-dioxane/water, 11.2 mM, 90.0 °C, 5.0 h): 19%

Cc1cccc(C)c1-c1cc2nc(n1)NS(=O)(=O)c1cccc(c1)C(=O)NCC1(CCN(C(=O)OC(C)(C)C)CC1)CO2 [Compound 81, tert-Butyl 6-(2,6-dimethylphenyl)-2,2,14-trioxo-spiro[9-oxa-2λ^6-thia-3,5,13,20-tetrazatricyclo[13.3.1.14,8]icosa-1(19),4(20),5,7,15,17-hexaene-11,4′-piperidine]-1′-carboxylate]
ring closure, isolated yield (from Cc1cccc(C)c1-c1cc(Cl)nc(NS(=O)(=O)c2cccc(C(=O)NCC3(CO)CCN(C(=O)OC(C)(C)C)CC3)c2)n1, snar bond, 14-membered ring, NaH, THF, 5.0 mM, 25.0 °C, 3.0 h): 66% | EC50 (CFTR [1]; Enteroid Assay A): 1000 to 3000 nM

Cc1ccc(C)c(-c2cc3nc(n2)NS(=O)(=O)c2cccc(c2)C(=O)N[C@H](CC(C)(C)C)CO3)c1C [Compound 51, (11R)-11-(2,2-Dimethylpropyl)-6-(2,3,6-trimethylphenyl)-9-oxa-2λ^6-thia-3,5,12,19-tetraazatricyclo[12.3.1.14,8]nonadeca-1(18),4,6,8(19),14,16-hexaene-2,2,13-trione]
ring closure, yield after HPLC ([3]; from Cc1ccc(C)c(-c2cc(OC[C@H](N)CC(C)(C)C)nc(NS(=O)(=O)c3cccc(C(=O)O)c3)n2)c1C, CDMT/NMM, 23.7 mM, 16.0 h): 31% | EC50 (CFTR [4]): < 1000 nM | Emax (CFTR [4]): > 60%

CC(C)C[C@@H]1COc2cc(Cl)nc(n2)NS(=O)(=O)c2cccc(c2)C(=O)N1
ring closure, isolated yield (from CC(C)C[C@@H](N)COc1cc(Cl)nc(NS(=O)(=O)c2cccc(C(=O)O)c2)n1, amide bond, 13-membered ring, HATU/Et3N, DMF, 29.1 mM, -5.0 °C, 0.17 h): 30%

Cc1cccc(C)c1-c1cc2nc(n1)NS(=O)(=O)c1cccc(c1)C(=O)NCC(c1ccc(C3(C(F)(F)F)CC3)cc1)O2 (stereo not drawn)
ring closure, isolated yield (from Cc1cccc(C)c1-c1cc(OC(CN)c2ccc(C3(C(F)(F)F)CC3)cc2)nc(NS(=O)(=O)c2cccc(C(=O)O)c2)n1, amide bond, 13-membered ring, HATU/NaOtBu, THF/DMF, 67.1 mM, 25.0 °C, 0.75 h, 2 steps): 26%

Cc1ccc2ccccc2c1-c1cc2nc(n1)NS(=O)(=O)c1cccc(c1)C(=O)N[C@H](CC(C)(C)C)CO2 [Compound 52, (11R)-11-(2,2-Dimethylpropyl)-6-(2-methyl-1-naphthyl)-2,2-dioxo-9-oxa-2λ^6-thia-3,5,12,19-tetrazatricyclo[12.3.1.14,8]nonadeca-1(18),4(19),5,7,14,16-hexaen-13-one]
ring closure, yield after HPLC ([3]; from Cc1ccc2ccccc2c1-c1cc(OC[C@H](N)CC(C)(C)C)nc(NS(=O)(=O)c2cccc(C(=O)O)c2)n1, HATU/TEA, 44.8 mM, 2.0 h): 25% | EC50 (CFTR [4]): < 1000 nM | Emax (CFTR [4]): > 60%

Cc1cccc(C)c1-c1cc2nc(n1)NS(=O)(=O)c1cccc(c1)C(=O)NC(C1CC3(CCC3)C1)CO2 (stereo not drawn) [Compound 50, 6-(2,6-Dimethylphenyl)-2,2-dioxo-11-spiro[3.3]heptan-2-yl-9-oxa-2λ^6-thia-3,5,12,19-tetrazatricyclo[12.3.1.14,8]nonadeca-1(18),4(19),5,7,14,16-hexaen-13-one]
ring closure, yield after HPLC ([3]; from Cc1cccc(C)c1-c1cc(OCC(N)C2CC3(CCC3)C2)nc(NS(=O)(=O)c2cccc(C(=O)O)c2)n1, CDMT/NMM, 46.6 mM, 1.5 h): 25% | EC50 (CFTR [4]): < 1000 nM | Emax (CFTR [4]): > 60%
